Measurements taken from patent US7858745B2, “Use of specifically engineered enzymes to enhance the efficacy of prodrugs” (The Board of Trustees of the University of Illinois, priority 2003, dated 2010).
Blank lines part the entries; values can stand above or below the compound they belong to.

Experiments:
dNK = biological target: T1, dNK (Drosophila melanogaster, UniProt Q9XZT6); settings: dC phosphorylation; cited from earlier work
T1 sequence (Q9XZT6 1-250): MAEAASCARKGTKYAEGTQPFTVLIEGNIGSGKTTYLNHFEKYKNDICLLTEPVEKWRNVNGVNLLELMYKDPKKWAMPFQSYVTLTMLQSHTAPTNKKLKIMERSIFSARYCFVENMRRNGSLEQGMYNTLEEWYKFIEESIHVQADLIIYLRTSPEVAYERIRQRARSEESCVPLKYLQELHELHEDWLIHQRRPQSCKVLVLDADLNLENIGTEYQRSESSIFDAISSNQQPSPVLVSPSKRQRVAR

A100V/R104M/D133A-dCK = A100V/R104M/D133A-dCK (Homo sapiens, UniProt P27707, A100V/D133A/R104M); assay: Steady-state kinetic assay of deoxycytidine kinase activity, triple mutant enzyme
Procedure: Since Arg104 plays a role in the already mentioned active site hydrogen-bonding network, its mutation to the uncharged methionine was combined with the compensatory change of Asp133 to an alanine. […] In addition, Ala100 was changed to a valine as is found in dNK.
All experiments were performed in duplicates.

Wild Type dCK = Wild Type dCK (Homo sapiens, UniProt P27707); assay: Steady-state kinetic assay of deoxycytidine kinase activity, wild type enzyme; settings: prodrug versus dC
dCK = dCK (Homo sapiens, UniProt P27707); settings: versus cladribine; cited from earlier work
HL60 cell line = assay: Annexin V and propidium iodide (PI) staining of apoptotic cells, HL60; format: cell-based; settings: after 96 hours; AraC at 1 μM
Procedure: (§1) The HuM195 antibody will only bind and internalize to cells expressing CD33. Thus, the HL60 cell line (derived from AML cells) and the NB4 cell line, which are CD33 positive, were used to test the activity of the HuM195-dCK system in live cells. The cells were treated with AraC, the HuM195-dCK conjugate, or the combination of HuM195-dCK and the AraC. Annexin V and propidium iodide (PI) staining was used to identify apoptotic cells.

NB4 cells = assay: Apoptosis assay, NB4; format: cell-based; settings: after 96 hours; AraC 250 nM
Procedure: as §1
The NB4 cells were also treated with AraC, the HuM195-dCK conjugate, or the combination of HuM195-dCK and the AraC, and an apoptosis assay was performed as above. The AraC dose used, however, was decreased from 1000 nM to 250 nM. The results were similar to those observed in the HL60 cells (FIG. 8). The conjugate with AraC (right bars) achieve ˜65% cell killing after 96 hours, whereas AraC alone was below 40%.

Sequence of Wild Type dCK (P27707 whole entry): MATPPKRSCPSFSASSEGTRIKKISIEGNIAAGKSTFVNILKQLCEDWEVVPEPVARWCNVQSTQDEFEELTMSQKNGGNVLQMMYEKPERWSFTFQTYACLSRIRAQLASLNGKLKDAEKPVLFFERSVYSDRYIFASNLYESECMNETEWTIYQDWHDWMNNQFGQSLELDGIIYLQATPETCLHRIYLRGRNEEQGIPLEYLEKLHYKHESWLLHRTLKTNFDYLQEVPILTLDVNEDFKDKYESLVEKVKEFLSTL
Sequence of A100V/R104M/D133A-dCK (P27707 whole entry A100V/R104M/D133A): as the sequence (P27707 whole entry) above, with A100V, R104M, D133A counted along it
Sequence of dCK (P27707 whole entry): as the sequence (P27707 whole entry) above

Compound: Nc1ccn([C@H]2C[C@H](O)[C@@H](CO)O2)c(=O)n1 [dC, deoxycytidine]
kcat (dNK): 16.5 s⁻¹

Compound: Cc1cn([C@H]2C[C@H](O)[C@@H](CO)O2)c(=O)[nH]c1=O [thymidine]
phosphorylation of thymidine by the dCK mutant (A100V/R104M/D133A-dCK; Arg104 to methionine, Asp133 to alanine): gained the ability to phosphorylate thymidine

change in KM compared to dC (Wild Type dCK): slight increase
higher enzymatic efficiency for dCK compared to dC (Wild Type dCK): ~4 fold
increase in the kcat compared to dC (Wild Type dCK): 10 fold
increase of efficiency of the triple mutant over wild type (A100V/R104M/D133A-dCK; triple mutant versus wild type dCK): ~4 fold
Compound: Nc1ccn([C@@H]2O[C@H](CO)[C@@H](O)C2(F)F)c(=O)n1 [gemcitabine, 2′,2′-difurodeoxycytidine]

Compound: Nc1nc(Cl)nc2c1ncn2[C@@H]1O[C@H](CO)[C@@H](O)[C@@H]1F [clofarabine, 2-chloro-2′-arabino-fluoro-2′-deoxyadenosine]
more efficient substrate for dCK than cladribine (dCK): ~3 fold

Compound: Nc1ccn([C@@H]2O[C@H](CO)[C@@H](O)[C@@H]2O)c(=O)n1 [ara-C, 1-β-D-arabinofuranosylcytosine]
cell death (HL60 cell line): 50%
cell killing (NB4 cells): below 40%
